# Tests used:
# [1] = tested on: inflammatory peritoneal macrophages; assay: Cytokine release by LPS-stimulated inflammatory peritoneal macrophages; type: cell-based; details: stimulation with LPS in vitro
# Excerpt: Because of the focus on lung fibrosis, we examined the effects of irradiation on macrophages in terms of their ability to modulate fibroblast responses. […] In addition, BCN-512 blocks the ability of irradiated macrophages to stimulate fibroblast proliferation. The ability of BCN-512 to reprogram macrophages is likely highly relevant to its ability to mitigate radiation induced fibrosis and tissue damage
# [2] = tested on: WINT target gene expression; assay: Wnt target gene expression; details: FIG. 23
# [3] = tested on: canonical Wnt-β catenin signaling; assay: TCF/LEF luciferase reporter assay in HEK293 cells; type: cell-based; details: 28 μM, 24 h, vs vehicle treated cells
# Experimental: LiCl (10 mM) treatment was used as positive control for luciferase activity. Luciferase activity was determined after 24 h using a Dual-Luciferase® Reporter Assay System (Promega) as per manufacturer's protocol. HEK293 cells containing a FOPFlash construct were used as a negative control.
# [4] = tested on: radiation dermatitis (erythema, edema); assay: Draize scoring of dermal radiation sites, dermal dosing 10 mg/mL Day 0 to 6; type: in vivo; details: Avg of Days 1-6 and 8
# [5] = tested on: human A549 adenocarcinoma cells; assay: A549 xenograft lung colony model in nude mice; type: in vivo; details: 20 mg/kg sc once daily for 5 days, with or without 4 Gy LTI x 3, day 72
# Experimental: LTI alone decreased the number of co […] lonies by 40%. Extensive analysis of the drug doses that would be optimal for exerting effects on tumors in the radiation setting are still needed, but there is no evidence for enhanced tumor growth as a result of radiation treatment with drug, and in fact exactly the opposite. […] Thirty-two nude mice were injected intravenously with 5×10^4 human A549 adenocarcinoma cells on day 1. The drug was administered starting at day 3; 20 mg/kg BCN512 was injected subcutaneously once daily for 5 days. Fractionated radiation was started on day 4, with 4 Gy LTI administered daily for 3 days. Tumors developed very slowly, so the mice were sacrificed on day 72 and the number of nodules in the lungs were counted. There was considerable variation in the irradiated group, with a tendency for lung irradiation to increase the number of tumor colonies. This is not a unique observation that may be ascribed to radiation-induced myeloid cell mobilization.
# [6] = tested on: bone marrow hematopoietic stem cells (HSCs); assay: Total body irradiation survival (hematopoietic suppression); type: in vivo, C3H/HeN mice
# Experimental: FIG. 8A-C: (A) Kaplan Meier Plot of Male C3H/HeN mice 7.75Gy 30 Day TBI (n=30) 50 mg/kg BCN057. (B). Kaplan Meier Plot of Female C3H/HeN mice 7.75Gy 30 Day TBI (n=10) 25 mg/kg BCN057. (C) Cytokine Profile in Plasma Male C3H/HeN mice 7.75Gy TBI Day 8 receiving BCN057.
# 7.75 Gy radiation is used to ablate bone marrow hematopoietic stem cells (HSCs) in these strains of mice. […] Lethality from bone marrow suppression occurs in the 14-25 day region due to the life cycle of approximately 2 weeks for RBC and inability to replace them without HSCs
# 7.73 Gy radiation is used to ablate bone marrow HSCs in the C3H strain of mice.
# Lewis lung (LLC) tumors = assay: Lewis lung (LLC) artificial metastasis model, lung tumor colonies; type: in vivo, C57Bl/6 and C3H mice
# Experimental: One of the major concerns of the Food and Drug Administration for the application of radiation mitigators in RT is that if an agent can protect normal tissue from radiation damage, it may also protect tumor tissues. […] The syngeneic model of artificial metastasis used Lewis lung (LLC) tumors, and since LLC also grow in C3H mice, this could be employed as an allogeneic model. C57B1/6 and C3H mice were injected i.v. with 5×10^4 tumor cells. Subcutaneous drug injections were started on day +3 when the tumors were established in the lung in order to bias the experiment in favor of tumor growth promotion. The dose regimen was arbitrarily assigned to a dose of 20 mg/kg for 5 days. LTI was started on day 4, with 4 Gy doses administered daily for 3 days. This is higher than conventional 2 Gy to compensate for the more rapid growth of murine tumors, but is still well within the range used clinically in hypofractionated therapy.
# [7] = tested on: macrophages co-cultured with fibroblasts; assay: Macrophage-fibroblast co-culture, CFSE proliferation; type: cell-based, mouse
# Excerpt: Cell proliferation was used as a sensitive in vitro endpoint because it can also be used to detect cell death. Cells were labeled with the fluorescent dye CF SE, which becomes diluted as the cells proliferate over time. We performed a series of experiments using tumor cell lines to validate the assay and determine the effective ratios of macrophages to target cells (not shown) before performing experiments with normal early-pass murine embryo fibroblasts. To study the effects of BCN-512 and macrophages on fibroblast cell proliferation and death, irradiated (2 or 6 Gy) macrophages and fibroblasts were added at various ratios. Normal mouse fibroblasts were labelled with CF SE and added to the macrophages in 96-well plates. BCN-512 (10 μM) and/or LPS (1 μg/mL) or diluent were then added, and the plates cultured for 1, 2, or 3 days. The purpose of the LPS was to activate the macrophages. BCN-512 was added 1 hour after LPS, which was added immediately after irradiation
# immature myeloid cells = assay: Immature myeloid cells after WBI and WTLI; type: in vivo
# Excerpt: 2. […] They co-express CD11b, Ly6G, and Ly6C, and are required for mitigation by BCN-512, at least after WBI.
smiles,measurement,setting,value
"O=[N+]([O-])c1ccc(S(=O)(=O)N2CCN(c3ccccc3)CC2)cc1 [BCN512, 1-[(4-nitrobenezene)sulfonyl]-4-phenyl piperazine]",amount of pro-inflammatory cytokines released,[1],decreases
same,Wnt target gene expression,[2],induces the WINT target gene expression
same,luciferase activity,[3],significantly increased luciferase activity
same,Average Draize score Edema,[4],0
same,Average Draize score Edema Site 2,[4],0
same,Average Draize score Edema Site 3,[4],0.5714
same,Average Draize score Edema Site 4,[4],0
same,Average Draize score Edema Site 5,[4],0.8571
same,Average Draize score Edema Site 6,[4],0
same,Average Draize score Erythema Site 2,[4],0.4286
same,Average Draize score Erythema Site 3,[4],1.429
same,Average Draize score Erythema Site 4,[4],0.1429
same,Average Draize score Erythema Site 5,[4],1.571
same,Average Draize score Erythema Site 6,[4],0.8571
same,number of tumor colonies (lung nodules),[5],did not increase the number of tumor colonies
same,lethality from bone marrow suppression,"[6]; 7.73 Gy TBI, C3H strain of mice",sufficient to prevent lethality from bone marrow suppression
same,efficacy in total body irradiation experiments,"[6]; Deoxycholate formulation, subcutaneously",good efficacy
same,lung tumor colony size,"Lewis lung (LLC) tumors; both strains, vs control",smaller in size than control
same,decrease of the number of lung tumor colonies,"Lewis lung (LLC) tumors; day 14, 20 mg/kg sc for 5 days, both C3H and C57 mouse strains, P<0.05",20%
same,toxicity of LPS-treated macrophages to fibroblasts,"[7]; 10 μM, LPS 1 μg/mL, ratios of 20:1 or 25:1",practically abolished the toxicity associated with LPS treatment
same,increase of viable fibroblasts by irradiated macrophages,"[7]; 6 Gy macrophage irradiation, 3 days",seemed to neutralize this function
same,"number of immature myeloid cells (CD11b, Ly6G, Ly6C)",immature myeloid cells,greatly increases

# Source: US11229635B2, “Method of treating fibrosis” (BCN Biosciences L.L.C., priority 2016, dated 2022)
